Target: human PKR1 receptors (Homo sapiens (Human), UniProt Q8TCW9)
Assay: PKR1 antagonist assay: block of PK1-mediated intracellular calcium release (FLIPR)
Type: cell-based
Conditions: antagonist activity; RBL2H3 cells expressing human PKR1; stimulation with PK1 at EC80; calcium fluorescence
Procedure: Prokineticin receptor 1 (PKR1) antagonists may be functionally assessed by measurement of change in intracellular calcium levels induced by Gq mediated increase in inositol triphosphate (IP3) levels. The ability of a compound to block the intracellular release of calcium mediated by PK1 in RBL2H3 cells expressing human PKR1 receptors is determined as a measure of the compound's antagonist activity in vitro.
Approximately 10,000 cells per assay well are seeded in normal culture medium in a 384 well plate (Corning). […]
To test for antagonist activity, test compounds at a final concentration range between 0.32 nM-10 μM (diluted in assay buffer) are added to the assay wells and allowed to incubate for 10 minutes prior to stimulation with PK1. After incubation with test compounds the assay plate is placed in a FLIPR Tetra (Molecular Devices) and PK1 (diluted in assay buffer) is added at the determined EC80 concentration (final). Ligand-dependent changes in intracellular calcium levels are determined by measuring changes in fluorescence of the dye at […] following excitation at 485 nm.

human PKR1 receptors, sequence (Q8TCW9 whole entry): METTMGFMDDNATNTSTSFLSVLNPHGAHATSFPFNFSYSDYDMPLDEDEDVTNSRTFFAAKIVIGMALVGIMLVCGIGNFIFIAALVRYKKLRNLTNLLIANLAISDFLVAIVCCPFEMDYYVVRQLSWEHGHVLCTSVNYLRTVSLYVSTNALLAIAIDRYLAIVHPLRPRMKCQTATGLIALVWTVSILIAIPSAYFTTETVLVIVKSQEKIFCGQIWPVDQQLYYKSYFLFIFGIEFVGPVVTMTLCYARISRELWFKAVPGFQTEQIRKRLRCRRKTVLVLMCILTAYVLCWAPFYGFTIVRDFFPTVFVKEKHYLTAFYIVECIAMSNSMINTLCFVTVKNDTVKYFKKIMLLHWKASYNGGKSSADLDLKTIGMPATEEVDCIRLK

`Cc1n[nH]c(C)c1S(=O)(=O)N1CCC(C(C#N)c2ccc(Cl)cc2F)CC1` (stereo not shown) [Example 92, 2-(4-Chloro-2-fluorophenyl)-2-(1-((3,5-dimethyl-1H-pyrazol-4-yl)sulfonyl)piperidin-4-yl)acetonitrile] showed an IC50 of 1850 nM.
